Entries after “also recorded” stand apart in the source; their conditions may differ. Like-named read-outs stand apart in the source and are kept apart here.

In series [1] the test system is osteoclast calcium receptor. In words: [Ca^2+]i (indo-1) in rat osteoclasts. Format: cell-based.
Series [2] in a line: serum/blood calcium, PTH, albumin and phosphate in rats, intraperitoneal. Format: in vivo, rat. Particulars: rat, i.p. The protocol: Compounds shown to activate the bovine parathyroid cell calcium receptor in vitro were tested for hypocalcemic activity in vivo. […] […] […] Serum total calcium, albumin and phosphate were measured by techniques well known in the art.
The target of series [3] is T1, parathyroid cell calcium receptor (Bos taurus, UniProt P35384).
T1 sequence (P35384 21-1085 limits assumed): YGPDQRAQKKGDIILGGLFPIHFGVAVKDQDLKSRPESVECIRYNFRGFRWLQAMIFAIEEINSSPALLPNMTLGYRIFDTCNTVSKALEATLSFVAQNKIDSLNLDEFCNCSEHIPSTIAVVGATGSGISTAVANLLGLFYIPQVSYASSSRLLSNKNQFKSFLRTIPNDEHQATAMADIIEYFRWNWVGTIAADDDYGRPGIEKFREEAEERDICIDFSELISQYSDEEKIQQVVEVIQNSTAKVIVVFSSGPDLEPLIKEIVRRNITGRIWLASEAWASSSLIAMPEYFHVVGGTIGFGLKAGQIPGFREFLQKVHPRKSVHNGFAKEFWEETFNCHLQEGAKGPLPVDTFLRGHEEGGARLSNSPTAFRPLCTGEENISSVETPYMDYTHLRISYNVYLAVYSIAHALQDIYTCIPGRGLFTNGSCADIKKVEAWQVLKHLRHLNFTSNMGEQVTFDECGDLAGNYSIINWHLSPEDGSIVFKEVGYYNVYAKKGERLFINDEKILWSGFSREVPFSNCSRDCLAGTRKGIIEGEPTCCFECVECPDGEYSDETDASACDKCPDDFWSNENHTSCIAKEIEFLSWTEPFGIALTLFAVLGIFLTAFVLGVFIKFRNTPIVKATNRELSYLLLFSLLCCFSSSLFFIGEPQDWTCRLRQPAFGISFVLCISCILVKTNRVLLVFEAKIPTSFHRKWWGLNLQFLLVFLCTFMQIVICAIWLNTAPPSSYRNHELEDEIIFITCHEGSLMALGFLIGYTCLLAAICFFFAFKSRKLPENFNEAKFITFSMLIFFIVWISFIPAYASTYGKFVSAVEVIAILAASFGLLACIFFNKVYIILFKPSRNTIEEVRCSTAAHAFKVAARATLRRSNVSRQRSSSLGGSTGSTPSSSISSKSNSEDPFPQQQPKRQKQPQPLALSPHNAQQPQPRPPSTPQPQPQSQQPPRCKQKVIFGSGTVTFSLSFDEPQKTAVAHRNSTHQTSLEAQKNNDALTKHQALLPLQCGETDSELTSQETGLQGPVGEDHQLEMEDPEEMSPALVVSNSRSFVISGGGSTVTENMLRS
Kind of series: cell-based. It is filed as cell-based. Particulars: for potentiation of mobilization of intracellular Ca^2+ elicited by extracellular divalent cations / change in [Ca^2+]i at low extracellular Ca^2+ / increase in [Ca^2+]i at intermediate extracellular Ca^2+: 100 μM; for change in [Ca^2+]i at low extracellular Ca^2+: 0.5 mM extracellular Ca^2+; for increase in [Ca^2+]i at intermediate extracellular Ca^2+: 1-[…] extracellular Ca^2+; for effect on intracellular Ca^2+: 500 μM; for effect on [Ca^2+]i response to extracellular Mg^2+: ionomycin 1 μM, 1799 5 μM; for effect on basal [Ca^2+]i or increases evoked by extracellular Ca^2+: 1 μM.

Another series can be described thus: net positive charge. It is filed as physicochemical. Particulars: for Net (+) Charge: Table 1, at physiological pH.
The test system of series [4] is Ca^2+ influx in parathyroid cells. Kind of series: influx of extracellular Ca^2+ in bovine parathyroid cells. It is filed as cell-based. The conditions noted are these: for [Ca^2+]i: 100 to 1000 μM, 2 mM CaCl2; for effect on increases in [Ca^2+]i elicited by extracellular Ca^2+: pretreatment.
For series [5], the target named is T2, bovine parathyroid cell calcium receptor (Bos taurus, UniProt P35384).
T2 construct: expressed in transfected cells; host or cells: Xenopus laevis oocytes injected with cRNA from BoPCaR 1
T2 sequence (P35384 21-1085 limits assumed): T1 sequence (P35384 21-1085 limits assumed)
Kind of series: Cl^- current in Xenopus oocytes expressing BoPCaR 1. It is filed as cell-based. The conditions noted are these: 1 mM extracellular Ca^2+. The protocol:
These responses are mediated by the following series of biochemical events:
Xenopus oocytes were injected with BoPCaR 1, the 5.3 Kb cDNA encoding a bovine parathyroid cell calcium receptor as described in Example 25. After two to three days, Cl^- currents were examined in the oocytes using a two-electrode voltage clamp.
Xenopus oocytes were injected with BoPCaR 1 as described in Example 25. After two to three days, Cl^- currents were examined in the oocytes using two electrode voltage clamp.

Usually EC50 stands for the concentration that produces a half-maximal response. As for `CC(NCCCc1ccccc1)c1ccc(Cl)cc1` (racemic) [Compound 1H], the EC50 in series [1] (Table 6, rat osteoclasts) amounted to 250 µM.

Turning to `COc1cccc(C(C)NCCCc2ccccc2)c1` (racemic) [NPS 467], in series [2], the “reduction in serum or whole blood Ca^2+” value is “dose-dependent reduction in serum or whole blood Ca^2+” and the “time to return toward control levels” value worked out at 24 h. In addition, the “change in serum albumin or phosphate” value in series [2] (all doses) is on record as “no change in serum albumin or phosphate levels”. For the same compound, the “circulating PTH” value in series [2] (preliminary studies) is recorded as “dose-dependent reduction in circulating levels of PTH”. Consider `N=C(N)NCCC[C@H](N)C(=O)NCCCNCCCNCCCCCNC(=O)[C@H](CC(N)=O)NC(=O)Cc1c[nH]c2cccc(O)c12` [Argiotoxin-659, reference compound], for which the EC50 in series [3] came out at 300 µM; in series [3] (EC50 for mobilizing intracellular Ca^2+, bovine parathyroid cells) it was 300 µM. In series [3] (100 to 300 μM), the “increases in [Ca^2+]i” value was “evoked transient increases in [Ca^2+ ]i”. The “Net (+) Charge” value in the series “net positive charge” is “+4”. Take `NC[C@H]1O[C@H](O[C@H]2[C@H](O)[C@@H](O[C@H]3O[C@H](CO)[C@@H](O)[C@H](N)[C@H]3O)[C@H](N)C[C@@H]2N)[C@H](N)[C@@H](O)[C@@H]1O` [Bekanamycin]: in the series “net positive charge”, the “Net (+) Charge” value was “+5” and the “net positive charge at pH 7.3” value is “+5”. As to `COc1ccc(CCN(C)CCCC(C#N)(c2cc(OC)c(OC)c(OC)c2)C(C)C)cc1OC` [Compound D-600, reference compound], in series [4] (100 μM), the “block of influx of extracellular Ca^2+” value is on record as “blocked the influx”. In series [3], the “potentiation of mobilization of intracellular Ca^2+ elicited by extracellular divalent cations” value is “potentiated the mobilization”; the “change in [Ca^2+]i at low extracellular Ca^2+” value was “evoked no change in [Ca^2+ ]i”; the “increase in [Ca^2+]i at intermediate extracellular Ca^2+” value is on record as “small, but robust increase”. For the compound `NCCCCCCCCCCCCN` [DADD, 1,12-diaminododecane], in series [4], the “[Ca^2+]i” value is “prompt fall in [Ca^2+ ]i” and the “effect on increases in [Ca^2+]i elicited by extracellular Ca^2+” value is “depresses steady-state, but not transient increases in [Ca^2+ ]i”. The “Net (+) Charge” value in “net positive charge” is “+2”.

Take `NC[C@H]1O[C@H](O[C@H]2[C@H](O)[C@@H](O[C@H]3O[C@H](CO)[C@@H](O)[C@H](N)[C@H]3O)[C@H](N)C[C@@H]2N)[C@H](O)[C@@H](O)[C@@H]1O` [Kanamycin, reference compound]: the “effect on intracellular Ca^2+” value in series [3] is “without effect”. In addition, the “net positive charge at pH 7.3” value in the series “net positive charge” is on record as “~+4.5”. For `NCCCNCCCCNCCCNCCCN(O)CCCNC(=O)Cc1c[nH]c2ccccc12` [NPS 017, reference compound], in series [5], the “Cl^- current” value is on record as “oscillatory increases in the Cl^- current”. Regarding `NCCCN(CCCN)CCCN(CCCN)CCCCN(CCCN)CCCN(CCCN)CCCN` [NPS 381, N^1, N^1, N^5, N^10, N^14, N^14-hexakis-(3-aminopropyl) spermine], in the series “net positive charge”, the “Net (+) Charge” value was “+10”. On the same count and under the same terms, in the case of `NCCCN(CCCN)CCCNCCCCNCCCN(CCCN)CCCN` [NPS 382, N^1, N^1, N^5, N^14, N^14-tetrakis-(3-aminopropyl)spermine] it was “+8”. On to `NCCCN1CCCN(CCCN)CCN(CCCN)CCCN(CCCN)CC1` [NPS 383], for which the “Net (+) Charge” value in the series “net positive charge” is given as “+8”. Turning to `COc1ccc(CC(=O)NCCCCCCCCCCCCN)cc1OC` [NPS 384], the “block of influx of extracellular Ca^2+” value in series [4] (300 μM) is listed as “blocked influx of extracellular Ca^2+”. In addition, in series [4], the “[Ca^2+]i” value is “prompt fall in [Ca^2+ ]i” and the “effect on increases in [Ca^2+]i elicited by extracellular Ca^2+” value is “depresses steady-state, but not transient increases in [Ca^2+ ]i”. Further, in series [3] (300 μM), the “increase in [Ca^2+]i” value was “did not evoke an increase in [Ca^2+ ]i” and the “potentiation of transient increases in [Ca^2+]i” value is listed as “fails to do so”. Take `NCCCCNCCCN` [Spermidine]: the “Net (+) Charge” value in the series “net positive charge” was “+3”. For the same compound, the “increase in [Ca^2+]i relative to maximal extracellular Ca^2+” value in series [1] (osteoclasts, 1000 µM) was “about 10%”. Turning to `[H]/N=C(/N)N[C@H]1[C@H](O)[C@@H](O)[C@H](O[C@@H]2O[C@@H](C)[C@](O)(C=O)[C@H]2O[C@@H]2O[C@@H](CO)[C@H](O)[C@@H](O)[C@@H]2NC)[C@@H](N/C(N)=N\[H])[C@@H]1O` [Streptomycin], in the series “net positive charge”, the “Net (+) Charge” value is listed as “+3” and the “net positive charge at pH 7.3” value is on record as “+3”.

Turning to `NCCNCCNCCNCCN` [TEPA, Tetraethylenepentamine], the “Net (+) Charge” value in the series “net positive charge” is recorded as “+5”. For the compound `NCCNCCNCCN` [TETA, Triethylenetramine], the “Net (+) Charge” value in the series “net positive charge” was “+4”. Turning to `CCN(CC)CCCCCCCCOC(=O)c1cc(OC)c(OC)c(OC)c1` [TMB-8, reference compound], in series [4] (100 μM), the “block of influx of extracellular Ca^2+” value is given as “blocked the influx”. Also, in series [3], the “potentiation of mobilization of intracellular Ca^2+ elicited by extracellular divalent cations” value is “potentiated the mobilization; also recorded: potentiated transient increases in [Ca^2+ ]i”; the “change in [Ca^2+]i at low extracellular Ca^2+” value was “evoked no change in [Ca^2+ ]i”; the “increase in [Ca^2+]i at intermediate extracellular Ca^2+” value is reported as “small, but robust increase”. On to `C[C@H](CCC(=O)O)C[C@H](C)C[C@H](C)C(=O)/C=C(\O)[C@H](C)C[C@H](C)C/C=C/[C@@H](C)[C@@H](O)[C@@H](C)[C@@H](O)C[C@@H]1CC[C@@](C)([C@H]2CC[C@@](C)([C@@H](C)O)O2)O1` [ionomycin, reference compound], for which the “effect on [Ca^2+]i response to extracellular Mg^2+” value in series [3] is recorded as “blocks the response to Mg^2+”. For `CCC[C@@H]1C[C@@H](C(=O)N[C@@H]([C@H]2O[C@H](SC)[C@H](O)[C@@H](O)[C@H]2O)[C@@H](C)O)N(C)C1` [lincomycin, reference compound], the “effect on intracellular Ca^2+” value in series [3] is given as “without effect”. Further, the “net positive charge at pH 7.3” value in “net positive charge” is on record as “+1”. Regarding `COc1cccc(C(C)NCCC(c2ccccc2)c2ccccc2)c1` (stereo not shown) [meta-Methoxyfendiline], in series [3] (in words), the relative potency entry was “as potent as NPS 467”. Consider `O=C(CC(O)(C(F)(F)F)C(F)(F)F)CC(O)(C(F)(F)F)C(F)(F)F` [molecule 1799, reference compound], for which the “effect on [Ca^2+]i response to extracellular Mg^2+” value in series [3] is “without effect on the response to Mg^2+”.

On to `COC(=O)C1=C(C)NC(C)=C(C(=O)OC)C1c1ccccc1[N+](=O)[O-]` [nifedipine, reference compound], for which, in series [3], the “effect on basal [Ca^2+]i or increases evoked by extracellular Ca^2+” value is reported as “None of the dihydropyridines tested”.

In the case of `CCOC(=O)C1=C(C)NC(C)=C(C(=O)OC)C1c1cccc([N+](=O)[O-])c1` (stereo not shown) [nitrendipine, reference compound], the “effect on basal [Ca^2+]i or increases evoked by extracellular Ca^2+” value in series [3] is given as “None of the dihydropyridines tested”.

`N[C@@H](Cn1oc(=O)[nH]c1=O)C(=O)O` [quisqualate, reference compound]: the “response to mGluR agonists” value in series [3] (bovine parathyroid cells, or Xenopus oocytes expressing calcium receptors) was “did not respond”. As to Gentamicin, in “net positive charge”, the “Net (+) Charge” value is on record as “+5” and the “net positive charge at pH 7.3” value is recorded as “+5”.

(Values after patent US5688938A, “Calcium receptor-active molecules” (priority 1995, dated 1997).)
